Data reported in PubChem BioAssay (NCI).
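Protocol summary: plate cells (96-well), add compound at 5 concentrations, incubate 48 h, interpolate endpoints linearly. At the GI50, growth is halved. TGI is the concentration that stops growth completely.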

Experiments:
Assay in all cases: DTP human tumour cell line panel, 48 h
[1] = test system: MCF7 breast
[2] = test system: EKVX NSCLC
[3] = test system: A498 renal
[4] = test system: RXF 393 renal
[5] = test system: 786-0 renal
[6] = test system: IGROV1 ovarian
[7] = test system: MDA-MB-231 breast
[8] = test system: MALME-3M melanoma
[9] = test system: SNB-75 CNS
[10] = test system: HCC-2998 colon

Structure (SMILES) | GI50 [1] | TGI [1] | GI50 [2] | TGI [2] | GI50 [3] | TGI [3] | GI50 [4] | TGI [4] | GI50 [5] | TGI [5] | GI50 [6] | TGI [6] | GI50 [7] | TGI [7] | GI50 [8] | TGI [8] | GI50 [9] | TGI [9] | GI50 [10] | TGI [10]
COC(=O)c1c2c(c(C)[n+]([O-])c1C)C(=O)C(NCc1ccc(F)cc1)=CC2=O | 1110 nM | 2.86 µM | 1660 nM | 4.14 µM | 1570 nM | 3.29 µM | 1560 nM | 3.51 µM | 2850 nM | 30.1 µM | 1150 nM | 2.76 µM | 1460 nM | 4.36 µM | 187 nM | 0.493 µM | 2230 nM | 5.96 µM | 1790 nM | 4.57 µM
CC(C)(C)C(=O)c1c(C(F)(F)F)n([O-])c2cc(Cl)c(Cl)cc2[n+]1=O | 168 nM | 0.566 µM | 1910 nM | 3.4 µM | 1330 nM | 2.6 µM | 438 nM | 0.909 µM | 466 nM | 0.882 µM | 77 nM | 0.213 µM | 1440 nM | 2.9 µM | 1340 nM | 2.73 µM | 189 nM | 0.408 µM | 172 nM | 0.465 µM
O=C(NCCCl)Nc1ccccc1 | – | > 100 µM | – | > 100 µM | – | > 100 µM | – | > 100 µM | – | > 100 µM | – | > 100 µM | – | > 100 µM | – | > 100 µM | – | > 100 µM | – | > 100 µM
CSc1ccc(NC(=O)Nc2cc(C)ccn2)cc1 | – | > 100 µM | – | > 100 µM | – | > 100 µM | – | > 100 µM | – | > 100 µM | – | > 100 µM | – | > 100 µM | – | > 100 µM | – | > 100 µM | – | > 100 µM
CC1=CC(C)(C)Nc2ccc(Cc3ccc4c(c3)C(C)=CC(C)(C)N4)cc21 | 5230 nM | 26.3 µM | 5670 nM | > 100 µM | 10900 nM | 61.4 µM | 22000 nM | 88.7 µM | 26000 nM | > 100 µM | 16100 nM | > 100 µM | 15700 nM | 64.2 µM | 11800 nM | 42 µM | 14800 nM | > 100 µM | 20600 nM | > 100 µM
COc1c(B(O)O)cccc1-c1nc2ccc3[nH]ncc3c2c2c1CCCC2 | 2040 nM | 13 µM | 2650 nM | 15.9 µM | 491 nM | 3.88 µM | 22.5 nM | 1.25 µM | 1200 nM | 11.9 µM | 2250 nM | 14.3 µM | 20.1 nM | 25.1 µM | 3390 nM | 6.86 µM | 30.7 nM | 0.382 µM | 2350 nM | 6.12 µM
CNCC(=O)NC(CO)C(=O)NC(CO)C(=O)NC1C(C(N)=O)OC(n2ccc(N)nc2=O)C(O)C1O (stereo not given) | > 50 µg/mL | > 50 µg/mL | 7.9 µg/mL | 31.8 µg/mL | 13 µg/mL | > 50 µg/mL | 6.4 µg/mL | 35.4 µg/mL | 12.5 µg/mL | > 50 µg/mL | 3.33 µg/mL | 26.4 µg/mL | > 50 µg/mL | > 50 µg/mL | 0.225 µg/mL | 7.58 µg/mL | 1.27 µg/mL | 8.92 µg/mL | 20.6 µg/mL | > 50 µg/mL
CN(C)c1cc2c(Nc3ccc4c(cnn4Cc4ccccc4)c3)ncnc2cn1 | 16500 nM | > 25 µM | 108 nM | > 8.76 µM | 16700 nM | > 25 µM | 8300 nM | > 20.8 µM | 8760 nM | > 25 µM | 5380 nM | > 23.3 µM | 6100 nM | > 25 µM | 12900 nM | > 25 µM | > 22000 nM | > 25 µM | 10800 nM | > 25 µM
C=C1C(=O)O[C@@H]2CC(CO)=C([C@@H](C)CCCO)[C@@H](OC(=O)/C(C)=C\C)[C@H]12 | – | 23.4 µM | – | 48.2 µM | – | > 74.1 µM | – | 37.7 µM | – | 52.1 µM | – | 35 µM | – | 57.2 µM | – | 32.5 µM | – | > 100 µM | – | 29.6 µM
OC(CN1CCCC2CCCCC21)c1cc2ccccc2c2ccccc12 (stereo not given) | 1840 nM | 3.51 µM | 1560 nM | 3.54 µM | 2210 nM | 5.8 µM | 1710 nM | 3.59 µM | 1840 nM | 3.6 µM | 2590 nM | 8.66 µM | 1690 nM | 4.06 µM | 1530 nM | 3.45 µM | 1900 nM | 6.83 µM | 1780 nM | 3.9 µM
O=C(CSC(c1ccccc1)c1ccccc1)N/N=C/c1ccccc1Cl | 11200 nM | > 52.8 µM | 2750 nM | > 34.1 µM | 7200 nM | 59.9 µM | 10200 nM | 55.9 µM | 19800 nM | 65.5 µM | 8070 nM | > 55.6 µM | 1460 nM | 11.5 µM | 6280 nM | 42.5 µM | 7600 nM | 30 µM | 6900 nM | > 75 µM
CC(=O)O[C@@H]1C2=C(C)C3(CC3)[C@@](C)(O)C(=O)C2=C[C@@]1(C)CO | 371 nM | 3.28 µM | 2660 nM | 7.56 µM | 1800 nM | 3.53 µM | 240 nM | 0.658 µM | 2040 nM | 6.1 µM | 598 nM | 5.08 µM | 1800 nM | 8.92 µM | 893 nM | 2.5 µM | 217 nM | 1.38 µM | 496 nM | 1.89 µM
C[C@H]1COCCN1c1nc(-c2cnc(N)cc2C(F)F)nc(N2CCOCC2)n1 | 48.7 nM | > 100 µM | 178 nM | 2 µM | 30.1 nM | 0.164 µM | 129 nM | 0.617 µM | 181 nM | 5.15 µM | 36.4 nM | 0.285 µM | 177 nM | 48.5 µM | 104 nM | 0.721 µM | 35.5 nM | 0.354 µM | 186 nM | 15.1 µM
